pEC50, pIC50: −log10 of the molar value. Read-outs that look alike come from different tables or passages of the source.
Assays:
[1] = system: HBV; test: Determination of HBV DNA from the supernatants of HepAD38 cells (anti-HBV activity); assay type: cell-based, hepatitis B virus; details: HBV DNA in HepAD38 supernatant at day 6, read-out: Cell Activity (EC50)
How it was run: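 EC50 values were obtained by non-linear regression of HBV DNA copy numbers measured by qPCR against pCH-9/3091 plasmid standards. The DNA came from filtered supernatants collected on day 6. Before that, tetracycline-withdrawn HepAD38 cells had been exposed to serial half-log compound dilutions, with tetracycline-treated cells as the non-producing control.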

[2] = system: HepAD38 cells; test: Cell viability assay (AlamarBlue) in HepAD38 cells; details: HepAD38 cells in the presence of 0.3 μg/ml tetracycline, six days incubation
[3] = biological target: HBV core protein (UniProt P03146); assay type: biochemical
How it was run: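 Compounds tested at 8 concentrations in 0.5-log steps from 100, 31.6 or 10 μM against 1.0–2.0 μM BODIPY-FL-labelled Cys150 core dimers (residues 1–149), 50 mM HEPES pH 7.5. NaCl ([…] final) triggered assembly; quenching read at 6 min, 477/525 nm, with 2.5 M and 0 M NaCl as controls; EC50 by nonlinear fit.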

[4] = BODIPY-FL labelled core protein, assembly started with NaCl, read after 6 min; read-out: Assembly Activity (IC50)
[5] = read-out: Assembly Activity (IC50); BODIPY-FL labelled core protein, assembly started with NaCl, read after 6 min

HBV core protein, sequence (P03146 whole entry, looked up, the tested form may be a part): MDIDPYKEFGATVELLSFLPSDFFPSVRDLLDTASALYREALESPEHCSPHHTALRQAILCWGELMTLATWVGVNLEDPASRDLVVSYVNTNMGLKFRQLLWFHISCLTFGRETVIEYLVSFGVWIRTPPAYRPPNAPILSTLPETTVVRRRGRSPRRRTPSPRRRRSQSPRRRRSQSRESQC

| Compound | pEC50 [1] | CC50 [2] | pIC50 [3, 4] | pIC50 [3, 5] | pEC50 ([1]; Hepatitis B virus, 144 h) |
| --- | --- | --- | --- | --- | --- |
| CCc1cccc2[nH]c(C(=O)N3CCc4nc(N[C@H]5C[C@H](O)C5)sc4C3)cc12 [Example 380, (1r,3r)-3-{[5-(4-ethyl-1H-indole-2-carbonyl)-4H,5H,6H,7H-[1,3]thiazolo[5,4-c]pyridin-2-yl]amino}cyclobutan-1-ol] | > 6.00 | > 10 µM | – | – | – |
| O=C(c1cc2ccccc2[nH]1)N1CCc2nc(N[C@H]3C[C@@H](O)C3)sc2C1 [Example 388, (1s,3s)-3-{[5-(1H-indole-2-carbonyl)-4H,5H,6H,7H-[1,3]thiazolo[5,4-c]pyridin-2-yl]amino}cyclobutan-1-ol] | > 6.00 | > 10 µM | – | – | – |
| O=C(c1cc2ccccc2[nH]1)N1CCc2nc(N[C@H]3C[C@H](O)C3)sc2C1 [Example 397, (1r,3r)-3-{[5-(1H-indole-2-carbonyl)-4H,5H,6H,7H-[1,3]thiazolo[5,4-c]pyridin-2-yl]amino}cyclobutan-1-ol] | > 6.00 | > 10 µM | > 5.30 | – | – |
| (2S)-2-amino-4-{[5-(1H-indole-2-carbonyl)-4H,5H,6H,7H-[1,3]thiazolo[5,4-c]pyridin-2-yl]carbamoyl}butanoic acid [Example 354] | > 6.00 | > 10 µM | > 5.30 | – | – |
| O=C(c1cc2ccc(Cl)cc2[nH]1)N1CCc2nc(N[C@H]3C[C@H](O)C3)sc2C1 [Example 357, (1r,3r)-3-{[5-(6-chloro-1H-indole-2-carbonyl)-4H,5H,6H,7H-[1,3]thiazolo[5,4-c]pyridin-2-yl]amino}cyclobutan-1-ol] | > 6.00 | > 10 µM | > 5.30 | – | – |
| O=C(Nc1nc2c(s1)CN(C(=O)c1cc3ccccc3[nH]1)CC2)C1[C@H]2COC[C@@H]12 (stereo partly drawn) [Example 361, (1R,5S,6S)—N-[5-(1H-indole-2-carbonyl)-4H,5H,6H,7H-[1,3]thiazolo[5,4-c]pyridin-2-yl]-3-oxabicyclo[3.1.0]hexane-6-carboxamide] | > 6.00 | > 10 µM | – | – | – |
| O=C(c1cc2c(F)c(F)ccc2[nH]1)N1CCc2nc(N[C@H]3C[C@H](O)C3)sc2C1 [Example 377, (1r,3r)-3-{[5-(4,5-difluoro-1H-indole-2-carbonyl)-4H,5H,6H,7H-[1,3]thiazolo[5,4-c]pyridin-2-yl]amino}cyclobutan-1-ol] | > 6.00 | > 10 µM | – | – | – |
| Cc1cc(F)cc2[nH]c(C(=O)N3CCc4nc(N[C@H]5C[C@H](O)C5)sc4C3)cc12 [Example 379, (1r,3r)-3-{[5-(6-fluoro-4-methyl-1H-indole-2-carbonyl)-4H,5H,6H,7H-[1,3]thiazolo[5,4-c]pyridin-2-yl]amino}cyclobutan-1-ol] | > 6.00 | > 10 µM | – | – | – |
| (2S)-2-amino-3-{[5-(1H-indole-2-carbonyl)-4H,5H,6H,7H-[1,3]thiazolo[5,4-c]pyridin-2-yl]carbamoyl}propanoic acid [Example 444] | > 6.00 | > 10 µM | 5.00 to 5.30 | – | – |
| O=C(c1cc2c(Cl)cccc2[nH]1)N1CCc2nc(N[C@H]3C[C@H](O)C3)sc2C1 [Example 381, (1r,3r)-3-{[5-(4-chloro-1H-indole-2-carbonyl)-4H,5H,6H,7H-[1,3]thiazolo[5,4-c]pyridin-2-yl]amino}cyclobutan-1-ol] | > 6.00 | > 10 µM | – | – | – |
| O=C(Nc1nc2c(s1)CN(C(=O)c1cc3ccccc3[nH]1)CC2)C1[C@H]2CNC[C@@H]12 (stereo partly drawn) [Example 359, (1R,5S,6R)—N-[5-(1H-indole-2-carbonyl)-4H,5H,6H,7H-[1,3]thiazolo[5,4-c]pyridin-2-yl]-3-azabicyclo[3.1.0]hexane-6-carboxamide] | > 6.00 | > 10 µM | > 5.30 | – | – |
| O=C(c1cc2c(F)c(F)ccc2[nH]1)N1CCc2nc(N[C@H]3CC[C@@H](O)CC3)sc2C1 [Example 395, (1s,4s)-4-{[5-(4,5-difluoro-1H-indole-2-carbonyl)-4H,5H,6H,7H-[1,3]thiazolo[5,4-c]pyridin-2-yl]amino}cyclohexan-1-ol] | > 6.00 | > 10 µM | > 5.30 | – | – |
| O=C(Nc1nc2c(s1)CN(C(=O)c1cc3ccccc3[nH]1)CC2)C1[C@H]2CNC[C@@H]12 (stereo partly drawn) [Example 360, (1R,5S,6S)—N-[5-(1H-indole-2-carbonyl)-4H,5H,6H,7H-[1,3]thiazolo[5,4-c]pyridin-2-yl]-3-azabicyclo[3.1.0]hexane-6-carboxamide] | > 6.00 | > 10 µM | > 5.30 | – | – |
| O=C(c1cc2c(F)cc(F)cc2[nH]1)N1CCc2nc(N[C@H]3C[C@H](O)C3)sc2C1 [Example 378, (1r,3r)-3-{[5-(4,6-difluoro-1H-indole-2-carbonyl)-4H,5H,6H,7H-[1,3]thiazolo[5,4-c]pyridin-2-yl]amino}cyclobutan-1-ol] | > 6.00 | > 10 µM | – | – | – |
| tert-butyl 3-{[5-(1H-indole-2-carbonyl)-4H,5H,6H,7H-[1,3]thiazolo[5,4-c]pyridin-2-yl]carbamoyl}azetidine-1-carboxylate [Example 387] | > 6.00 | > 10 µM | – | – | – |
| tert-butyl 4-{[5-(1H-indole-2-carbonyl)-4H,5H,6H,7H-[1,3]thiazolo[5,4-c]pyridin-2-yl]carbamoyl}piperidine-1-carboxylate [Example 384] | > 6.00 | > 10 µM | – | – | – |
| N-[5-(1H-indole-2-carbonyl)-4H,5H,6H,7H-[1,3]thiazolo[5,4-c]pyridin-2-yl]piperidine-4-carboxamide hydrochloride [Example 385] | > 6.00 | > 10 µM | – | – | – |
| CCc1cc(F)cc2[nH]c(C(=O)N3CCc4nc(N[C@H]5C[C@H](O)C5)sc4C3)cc12 [Example 376, (1r,3r)-3-{[5-(4-ethyl-6-fluoro-1H-indole-2-carbonyl)-4H,5H,6H,7H-[1,3]thiazolo[5,4-c]pyridin-2-yl]amino}cyclobutan-1-ol] | > 6.00 | > 10 µM | – | – | – |
| Cc1cccc2[nH]c(C(=O)N3CCc4nc(NCC5(O)CCC5)sc4C3)cc12 [Example 370, 1-({[5-(4-methyl-1H-indole-2-carbonyl)-4H,5H,6H,7H-[1,3]thiazolo[5,4-c]pyridin-2-yl]amino}methyl)cyclobutan-1-ol] | – | – | – | > 5.30 | > 6.00 |
| CC(C)(C)NC(=O)Nc1nc2c(s1)CN(C(=O)c1cc3c(Cl)cc(F)cc3[nH]1)CC2 [Example 265, 3-tert-butyl-1-[5-(4-chloro-6-fluoro-1H-indole-2-carbonyl)-4H,5H,6H,7H-[1,3]thiazolo[5,4-c]pyridin-2-yl]urea] | – | – | – | > 4.00 | > 6.00 |
| O=C(c1cc2ccccc2[nH]1)N1CCc2nc(NCC(F)(F)CO)sc2C1 [Example 225, 2,2-difluoro-3-{[5-(1H-indole-2-carbonyl)-4H,5H,6H,7H-[1,3]thiazolo[5,4-c]pyridin-2-yl]amino}propan-1-ol] | – | – | – | > 5.30 | > 6.00 |
| O=C(c1cc2c(CO)cccc2[nH]1)N1CCc2nc(NCC3(O)CCC3)sc2C1 [Example 367, 1-[({5-[4-(hydroxymethyl)-1H-indole-2-carbonyl]-4H,5H,6H,7H-[1,3]thiazolo[5,4-c]pyridin-2-yl}amino)methyl]cyclobutan-1-ol] | – | – | – | > 4.00 | > 6.00 |
| O=C(c1cc2ccccc2[nH]1)N1CCc2nc(NC(CO)C3CCOC3)sc2C1 (centres unmarked) [Example 297, 2-{[5-(1H-indole-2-carbonyl)-4H,5H,6H,7H-[1,3]thiazolo[5,4-c]pyridin-2-yl]amino}-2-(oxolan-3-yl)ethan-1-ol] | – | – | – | > 5.30 | > 6.00 |

From patent US11267825B2 (AICURIS GMBH & CO. KG, priority 2017, dated 2022)
